According to patent publication US9499534B2, “Thiazole-substituted aminopyrimidines as spleen tyrosine kinase inhibitors” (priority 2013, dated 2016):

Target: recombinant human GST-SYK (Homo sapiens (Human), UniProt P43405)
Test: Homogeneous Time-Resolved Fluorescence (HTRF) Assay for the Recombinant Human Syk Enzyme
Type: biochemical
Conditions: GST-SYK 5 pM, ATP 25 μM, biotinylated substrate peptide 250 nM, HTRF signal
Procedure: Homogeneous Time-Resolved Fluorescence (HTRF) Assay for the Recombinant Human Syk Enzyme
A recombinant GST-hSYK fusion protein was used to measure potency of compounds to inhibit human Syk activity. The recombinant human GST-SYK (Carna Biosciences #08-176) (5 pM final concentration) was incubated with various concentrations of the inhibitor diluted in DMSO (0.1% final concentration) for 10 minutes at room temperature in 15 mM Tris-HCl (pH 7.5), 0.01% tween 20, 2 mM DTT in 384 well plate format. To initiate the reaction the biotinylated substrate peptide (250 nM final concentration) that contains the phosphorylation site for Syk was added with magnesium (5 mM final concentration) and ATP (25 μM final concentration). Final volume of the reaction was 10 μL. Phosphorylation of the peptide was allowed to proceed for 45′ at room temperature. To quench the reaction and detect the phosphorylated product, 2 nM of a Europium-anti-phosphotyrosine antibody (Perkin Elmer #AD0161) and 70 nM SA-APC (Perkin-Elmer #CR130-100) were added together in 15 mM Tris pH 7.5, 40 mM EDTA, 0.01% tween 20. Final volume of the quenching solution was 10 μL.
The resulting HTRF signal was measured after 30 minutes on an EnVision (Perkin-Elmer) reader using a time-resolved fluorescence protocol. Table A below lists activities as IC50 values (nM) for representative compounds of the invention.

| IC50 [nM] | Structure (SMILES) |
| --- | --- |
| 3.22 | CC1(C)C[C@](O)(c2ncc(-c3cc(Nc4nccc(C(F)(F)F)n4)cc(-c4cncc(F)c4)c3)s2)CC[C@H]1C(=O)O (single isomer, unassigned) [Example 2.15, (1R,4S or 1S,4R)-4-{5-[3-(5-fluoropyridin-3-yl)-5-{[4-(trifluoromethyl)pyrimidin-2-yl]amino}phenyl]-1,3-thiazol-2-yl}-4-hydroxy-2,2-dimethylcyclohexanecarboxylic acid] |
| 1.29 | COc1cc(Nc2nccc(C(F)(F)F)n2)cc(-c2cnc([C@]3(O)CC[C@@H](C(=O)O)CC3)s2)c1 [Example 1.6, cis-4-Hydroxy-4-(5-(3-methoxy-5-((4-(trifluoromethyl)pyrimidine-2-yl)amino)phenyl)thiazol-2-yl)cyclohexanecarboxylic acid] |
| 162 | CCOC(=O)[C@H]1CC[C@](O)(c2ncc(-c3cc(Nc4nccc(C(F)(F)F)n4)cc(-c4cn[nH]c4)c3)s2)C[C@H]1C (racemic) [Example 1.1, Ethyl rel-(1S,2R,4R or S)-4-(5-(3-(1H-pyrazol-4-yl)-5-((4-(trifluoromethyl)pyrimidin-2-yl)amino)phenyl)thiazol-2-yl)-4-hydroxy-2-methylcyclohexanecarboxylate] |
| 24.6 | Cc1cscc1-c1cc(Nc2nccc(C(F)(F)F)n2)cc(-c2cnc([C@]3(O)CC[C@@H](C(=O)O)C(C)(C)C3)s2)c1 (single isomer, unassigned) [Example 2.24, (1R,4S or 1S,4R)-4-hydroxy-2,2-dimethyl-4-{5-[3-(4-methylthiophen-3-yl)-5-{[4-(trifluoromethyl)pyrimidin-2-yl]amino}phenyl]-1,3-thiazol-2-yl}cyclohexanecarboxylic acid] |
| 11.7 | CC1(C)C[C@](O)(c2ncc(-c3cc(Nc4nccc(C(F)(F)F)n4)cc(-c4ccsc4)c3)s2)CC[C@H]1C(=O)O (single isomer, unassigned) [Example 2.8, (1R,4S or 1S,4R)-4-hydroxy-2,2-dimethyl-4-[5-(3-thiophen-3-yl-5-{[4-(trifluoromethyl)pyrimidin-2-yl]amino}phenyl)-1,3-thiazol-2-yl]cyclohexanecarboxylic acid] |
| 1.56 | CC1(C)C[C@](O)(c2ncc(-c3cc(Nc4nccc(C(F)(F)F)n4)cc(-c4ccncc4)c3)s2)CC[C@H]1C(=O)O (single isomer, unassigned) [Example 2.5, (1R,4S or 1S,4R)-4-hydroxy-2,2-dimethyl-4-[5-(3-pyridin-4-yl-5-{[4-(trifluoromethyl)pyrimidin-2-yl]amino}phenyl)-1,3-thiazol-2-yl]cyclohexanecarboxylic acid] |
| 3.68 | COc1ccc(-c2cc(Nc3nccc(C(F)(F)F)n3)cc(-c3cnc([C@]4(O)CC[C@@H](C(=O)O)C(C)(C)C4)s3)c2)cn1 (single isomer, unassigned) [Example 2.7, (1R,4S or 1S,4R)-4-hydroxy-4-{5-[3-(6-methoxypyridin-3-yl)-5-{[4-(trifluoromethyl)pyrimidin-2-yl]amino}phenyl]-1,3-thiazol-2-yl}-2,2-dimethylcyclohexanecarboxylic acid] |
| 3.94 | C=C(C)c1cc(Nc2nccc(C(F)(F)F)n2)cc(-c2cnc([C@]3(O)CC[C@@H](C(=O)O)C(C)(C)C3)s2)c1 (single isomer, unassigned) [Example 2.30, (1R,4S or 1S,4R)-4-hydroxy-2,2-dimethyl-4-{5-[3-(1-methylethenyl)-5-{[4-(trifluoromethyl)pyrimidin-2-yl]amino}phenyl]-1,3-thiazol-2-yl}cyclohexanecarboxylic acid] |
| 2.38 | CC1(C)C[C@](O)(c2ncc(-c3cc(Nc4nccc(C(F)(F)F)n4)cc(-c4cn[nH]c4)c3)s2)CC[C@H]1C(=O)O (single isomer, unassigned) [Example 2.10, (1R,4S or 1S,4R)-4-hydroxy-2,2-dimethyl-4-{5-[3-(1H-pyrazol-4-yl)-5-{[4-(trifluoromethyl)pyrimidin-2-yl]amino}phenyl]-1,3-thiazol-2-yl}cyclohexanecarboxylic acid] |
| 1.4 | COc1cc(Nc2nccc(C(F)(F)F)n2)cc(-c2cnc([C@@]3(O)CC[C@H](C(=O)O)C(C)(C)C3)s2)c1 (single isomer, unassigned) [Example 1.5, (1R,4S or 1S,4R) 4-Hydroxy-4-(5-(3-methoxy-5-((4-(trifluoromethyl)pyrimidin-2-yl)amino)phenyl)thiazol-2-yl)-2,2-dimethylcyclohexanecarboxylic acid] |
| 4.06 | CC1(C)C[C@](O)(c2ncc(-c3cc(/C=C\C4CC4)cc(Nc4nccc(C(F)(F)F)n4)c3)s2)CC[C@H]1C(=O)O (single isomer, unassigned) [Example 2.27, (1R,4S or 1S,4R)-4-[5-(3-[(Z)-2-cyclopropylethenyl]-5-{[4-(trifluoromethyl)pyrimidin-2-yl]amino}phenyl)-1,3-thiazol-2-yl]-4-hydroxy-2,2-dimethylcyclohexanecarboxylic acid] |
| 2.95 | C[C@@H]1C[C@@](O)(c2ncc(-c3cc(Nc4nccc(C(F)(F)F)n4)cc(-c4cn[nH]c4)c3)s2)CC[C@@H]1C(N)=O (racemic) [Example 1.3, rel-(1S,2R,4R or S)-4-(5-(3-(1H-pyrazol-4-yl)-5-((4-(trifluoromethyl)pyrimidin-2-yl)amino)phenyl)thiazol-2-yl)-4-hydroxy-2-methylcyclohexanecarboxamide] |
| 63.5 | CCn1cc(-c2cc(Nc3nccc(C(F)(F)F)n3)cc(-c3cnc([C@]4(O)CC[C@@H](C(=O)O)C(C)(C)C4)s3)c2)cn1 (single isomer, unassigned) [Example 2.4, (1R,4S or 1S,4R)-4-{5-3-(1-ethyl-1H-pyrazol-4-yl)-5-{[4-(trifluoromethyl)pyrimidin-2-yl]amino}phenyl]-1,3-thiazol-2-yl}-4-hydroxy-2,2-dimethylcyclohexanecarboxylic acid] |
| 8.48 | N#Cc1cc(Nc2nccc(C(F)(F)F)n2)cc(-c2cnc(C3(O)CCC(C(=O)O)CC3)s2)c1 (stereo not drawn) [Example 1.7, cis 4-[5-(3-cyano-5-{[4-(trifluoromethyl)pyrimidin-2-yl]amino}phenyl)-1,3-thiazol-2-yl]-4-hydroxycyclohexanecarboxylic acid] |

| Structure (SMILES) | IC50 [nM] |
| --- | --- |
| Cc1cc(-c2cc(Nc3nccc(C(F)(F)F)n3)cc(-c3cnc([C@]4(O)CC[C@@H](C(=O)O)C(C)(C)C4)s3)c2)ccc1F (single isomer, unassigned) [Example 2.16, (1R,4S or 1S,4R)-4-[5-(4′-fluoro-3′-methyl-5-{[4-(trifluoromethyl)pyrimidin-2-yl]amino}biphenyl-3-yl)-1,3-thiazol-2-yl]-4-hydroxy-2,2-dimethylcyclohexanecarboxylic acid] | 153 |
| CC/C=C\c1cc(Nc2nccc(C(F)(F)F)n2)cc(-c2cnc([C@]3(O)CC[C@@H](C(=O)O)C(C)(C)C3)s2)c1 (single isomer, unassigned) [Example 2.26, (1R,4S or 1S,4R)-4-[5-(3-[(1Z)-but-1-en-1-yl]-5-{[4-(trifluoromethyl)pyrimidin-2-yl]amino}phenyl)-1,3-thiazol-2-yl]-4-hydroxy-2,2-dimethylcyclohexanecarboxylic acid] | 2.68 |
| Cc1ccc(F)c(-c2cc(Nc3nccc(C(F)(F)F)n3)cc(-c3cnc([C@]4(O)CC[C@@H](C(=O)O)C(C)(C)C4)s3)c2)c1 (single isomer, unassigned) [Example 2.22, (1R,4S or 1S,4R)-4-[5-(2′-fluoro-5′-methyl-5{[4-(trifluoromethyl)pyrimidin-2 yl]amino}biphenyl-3-yl)-1,3-thiazol-2-yl]-4-hydroxy-2,2-dimethylcyclohexanecarboxylic acid] | 46 |
| CC1(C)C[C@](O)(c2ncc(-c3cc(Nc4nccc(C(F)(F)F)n4)cc(-c4ccc(N)nc4)c3)s2)CC[C@H]1C(=O)O (single isomer, unassigned) [Example 2.19, (1R,4S or 1S,4R)-4-{5-[3-(6-aminopyridin-3-yl)-5-{[4-(trifluoromethyl)pyrimidin-2-yl]amino}phenyl]-1,3-thiazol-2-yl}-4-hydroxy-2,2-dimethylcyclohexanecarboxylic acid] | 1.29 |
| C/C=C(\C)c1cc(Nc2nccc(C(F)(F)F)n2)cc(-c2cnc([C@]3(O)CC[C@@H](C(=O)O)C(C)(C)C3)s2)c1 (single isomer, unassigned) [Example 2.28, (1R,4S or 1S,4R)-4-hydroxy-2,2-dimethyl-4-[5-(3-[(1E)-1-methylprop-1-en-1-yl]-5-{[4-(trifluoromethyl)pyrimidin-2-yl]amino}phenyl)-1,3-thiazol-2-yl]cyclohexanecarboxylic acid] | 2.75 |
| CC1(C)C[C@](O)(c2ncc(-c3cc(Nc4nccc(C(F)(F)F)n4)cc(-c4cccc(C(=O)NC5CC5)c4)c3)s2)CC[C@H]1C(=O)O (single isomer, unassigned) [Example 2.9, (1R,4S or 1S,4R)-4-{5-[3′-(cyclopropylcarbamoyl)-5-{[4-(trifluoromethyl)pyrimidin-2-yl]amino}biphenyl-3-yl]-1,3-thiazol-2-yl}-4-hydroxy-2,2-dimethylcyclohexanecarboxylic acid] | 2.78 |
